# According to US20260137642A1 (CANCER PREVENTION PHARMACEUTICALS, INC., priority 2021, published 2026):
# What was measured:
# [1] = test system: urinary polyamines; experiment: Phase I/II trial in new onset T1D: urinary polyamines (first morning urine, HPLC); assay type: in vivo, human; details: 3 months
# Description: This study was double-blind, placebo-controlled, 2:1 random assigned, phase I/II clinic trial for individuals with type 1 diabetes. The blinded dose-ranging study enrolled persons with new onset T1D with documented continued residual C-peptide production. […] After a 3 month wash-out period, the durability of effect was assessed. [table]
# [2] = test system: T cells; details: mice; cited from earlier work
# [3] = test system: RINm5F insulinoma cells; details: cited from earlier work
# [4] = biological target: T1, ODC enzyme activity (Homo sapiens, UniProt P11926); details: oral, daily, humans; cited from earlier work
# T1 construct: from tissue; host or cells: human epithelial tissues (in vivo, oral dosing); finding cited from the literature
# T1 sequence (P11926 1-461): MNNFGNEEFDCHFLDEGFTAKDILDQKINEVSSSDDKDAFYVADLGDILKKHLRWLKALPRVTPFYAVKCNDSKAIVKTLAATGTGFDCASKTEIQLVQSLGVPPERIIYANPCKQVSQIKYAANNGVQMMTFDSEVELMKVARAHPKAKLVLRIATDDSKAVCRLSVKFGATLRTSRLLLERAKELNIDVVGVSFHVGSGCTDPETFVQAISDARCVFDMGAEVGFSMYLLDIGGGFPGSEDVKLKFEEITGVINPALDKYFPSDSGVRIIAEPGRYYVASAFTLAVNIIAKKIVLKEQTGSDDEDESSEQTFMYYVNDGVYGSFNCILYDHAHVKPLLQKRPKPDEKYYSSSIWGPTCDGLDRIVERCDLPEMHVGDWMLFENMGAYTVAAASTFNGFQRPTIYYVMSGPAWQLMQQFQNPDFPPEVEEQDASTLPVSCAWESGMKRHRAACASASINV
smiles,measurement,setting,value
"NCCCC(N)(C(=O)O)C(F)F (centres unmarked) [eflornithine, 2,5-diamino-2-(difluoromethyl) pentanoic acid]",Change in urinary polyamines with increasing drug dose across groups,[1]; 125-1000 mg/m^2,Decreases in urinary polyamines
same,"3-month urinary Decarboxylated AdoMet, Least Square Means",[1]; Drug Dose 125,133.0 µmol/g
same,"3-month urinary Putrescine, Least Square Means",[1]; Drug Dose 125,127.9 µmol/g
same,"3-month urinary Decarboxylated AdoMet, Least Square Means",[1]; Drug Dose 250,87.7 µmol/g
same,"3-month urinary Putrescine, Least Square Means",[1]; Drug Dose 250,78.0 µmol/g
same,"3-month urinary Decarboxylated AdoMet, Least Square Means",[1]; Drug Dose 500,114.3 µmol/g
same,"3-month urinary Putrescine, Least Square Means",[1]; Drug Dose 500,41.8 µmol/g
same,"3-month urinary Decarboxylated AdoMet, Least Square Means",[1]; Drug Dose 750,116.0 µmol/g
same,"3-month urinary Putrescine, Least Square Means",[1]; Drug Dose 750,56.6 µmol/g
same,"3-month urinary Decarboxylated AdoMet, Least Square Means",[1]; Drug Dose 1000,165.7 µmol/g
same,"3-month urinary Putrescine, Least Square Means",[1]; Drug Dose 1000,35.7 µmol/g
same,Effect on T cells,[2],deplete T cells
same,Insulin content and secretion,[3],improves insulin content and secretion
same,ODC enzyme activity and polyamine contents in epithelial tissues,[4],inhibits ODC enzyme activity and polyamine contents
